Active and inactive are the calls of the source.

From ChEMBL document CHEMBL1201862, “PubChem BioAssay data set” (2004) come the findings set out here.

Assay [1] is described as follows: viability loss in HEK293 cells – cell-based, plate reader, cherry-picked samples, cytotoxicity control, dose response (AID 743446). Format: functional.
Assay [2] in a line: blockers of bursicon-stimulated LGR2 cAMP reporter – cell-based, HEK293, CRE-luciferase reporter, cherry pick, set 2, dose response (AID 743343).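 Also: transfected cells were stimulated with diluted bursicon conditioned medium after compound addition.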 Format: functional. (In general: A reporter such as luciferase makes a cellular process visible.)
The next assay has as its target T1, Protein skinhead-1 (Caenorhabditis elegans, UniProt P34707).
T1 sequence (P34707 whole entry): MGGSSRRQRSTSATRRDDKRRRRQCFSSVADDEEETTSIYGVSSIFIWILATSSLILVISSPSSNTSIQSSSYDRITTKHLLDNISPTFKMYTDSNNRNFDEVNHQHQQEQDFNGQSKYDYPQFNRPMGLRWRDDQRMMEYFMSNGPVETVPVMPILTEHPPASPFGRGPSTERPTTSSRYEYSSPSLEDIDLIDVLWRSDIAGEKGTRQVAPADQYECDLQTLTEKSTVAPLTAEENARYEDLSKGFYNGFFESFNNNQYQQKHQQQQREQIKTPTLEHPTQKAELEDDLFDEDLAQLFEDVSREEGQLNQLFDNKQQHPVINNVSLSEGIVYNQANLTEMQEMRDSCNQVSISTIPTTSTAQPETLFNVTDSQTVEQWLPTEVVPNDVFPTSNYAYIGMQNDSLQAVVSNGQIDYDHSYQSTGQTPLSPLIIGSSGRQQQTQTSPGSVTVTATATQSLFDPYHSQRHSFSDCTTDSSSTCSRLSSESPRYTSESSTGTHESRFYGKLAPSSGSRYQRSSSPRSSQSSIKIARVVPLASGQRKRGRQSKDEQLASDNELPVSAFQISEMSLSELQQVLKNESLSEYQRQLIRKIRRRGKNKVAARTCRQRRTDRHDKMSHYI
Type of assay: functional.

A short description of assay [3]: blockade of melanocortin 4 receptor signaling – cell-based, plate reader, cherry pick, counter-screen for LGR2 antagonist project, dose response (AID 743444).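 Also: transfected HEK 293 cells stimulated with alpha-MSH peptide; potency of inhibitors of the alpha-MSH evoked signal.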 Format: functional.
A short description of assay [4]: A549 cell cytotoxicity, dose response, cytotoxicity control, plate reader, cherry-pick, antagonist series (AID 743412). Type of assay: functional, cell-based.
Assay [5] deals with Luciferin 4-monooxygenase (Photinus pyralis, UniProt P08659). Kind of assay: inhibition of purified Photinus pyralis luciferase – biochemical, luminescence, dose response (AID 1891).
Assay [6] in a line: toxicity toward HepG2 liver cells – cell-based, plate reader, cherry-pick, antagonist series, cytotoxicity control, dose response (AID 743416). Type of assay: functional.
The nature of assay [7]: Luminescence Cell-Based Dose Confirmation HTS to Identify Inhibitors of Platelet Dense Granule Release. [Related pubchem assays: 1663 (Primary HTS), 1678 (Summary of Project)]. Type of assay: functional.
Assay [8] has as its system BJ. Kind of assay: cells. Type of assay: functional, cell-based. As to conditions: Homo sapiens.
The test system of assay [9] is BJ. Kind of assay: BJ-TERT fibroblast viability loss – cell-based, RAS-independent, luminescence, dose response (AID 1933). Format: functional. The conditions noted are these: Homo sapiens.
Assay [10] has as its system BJ. Briefly: BJ-TERT-LT-ST fibroblast viability loss – cell-based, RAS-independent, luminescence, dose response (AID 1935).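 Also: BJ fibroblasts immortalized with TERT plus LT and ST oncogenes.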 Format: functional. The conditions noted are these: Homo sapiens.
Assay [11] is described as follows: DRD fibroblast viability loss – cell-based, non-viral oncogenic, luminescence, dose response (AID 1934). The conditions noted are these: Homo sapiens. Type of assay: functional.
The target of another assay is Albumin (Bos taurus, UniProt P02769). Kind of assay: Counterscreen for inhibitors of T-cell receptor (TCR)-CD3 interaction: Fluorescence-based biochemical high throughput dose response assay to identify inhibitors of T-cell receptor (TCR)-CD3 interaction using a TAMRA-labeled BSA probe. Type of assay: functional. In general terms: A counterscreen serves to expose hits that act by an unwanted route or on another target.

The nature of assay [12]: fluconazole-exposed Candida albicans growth modulators – fluorescence, retest, confirmation (AID 2467). Format: functional, cell-based.
Assay [13] deals with T2, Replicative DNA helicase DnaB (Mycobacterium tuberculosis, UniProt P9WMR3).
T2 sequence (P9WMR3 whole entry): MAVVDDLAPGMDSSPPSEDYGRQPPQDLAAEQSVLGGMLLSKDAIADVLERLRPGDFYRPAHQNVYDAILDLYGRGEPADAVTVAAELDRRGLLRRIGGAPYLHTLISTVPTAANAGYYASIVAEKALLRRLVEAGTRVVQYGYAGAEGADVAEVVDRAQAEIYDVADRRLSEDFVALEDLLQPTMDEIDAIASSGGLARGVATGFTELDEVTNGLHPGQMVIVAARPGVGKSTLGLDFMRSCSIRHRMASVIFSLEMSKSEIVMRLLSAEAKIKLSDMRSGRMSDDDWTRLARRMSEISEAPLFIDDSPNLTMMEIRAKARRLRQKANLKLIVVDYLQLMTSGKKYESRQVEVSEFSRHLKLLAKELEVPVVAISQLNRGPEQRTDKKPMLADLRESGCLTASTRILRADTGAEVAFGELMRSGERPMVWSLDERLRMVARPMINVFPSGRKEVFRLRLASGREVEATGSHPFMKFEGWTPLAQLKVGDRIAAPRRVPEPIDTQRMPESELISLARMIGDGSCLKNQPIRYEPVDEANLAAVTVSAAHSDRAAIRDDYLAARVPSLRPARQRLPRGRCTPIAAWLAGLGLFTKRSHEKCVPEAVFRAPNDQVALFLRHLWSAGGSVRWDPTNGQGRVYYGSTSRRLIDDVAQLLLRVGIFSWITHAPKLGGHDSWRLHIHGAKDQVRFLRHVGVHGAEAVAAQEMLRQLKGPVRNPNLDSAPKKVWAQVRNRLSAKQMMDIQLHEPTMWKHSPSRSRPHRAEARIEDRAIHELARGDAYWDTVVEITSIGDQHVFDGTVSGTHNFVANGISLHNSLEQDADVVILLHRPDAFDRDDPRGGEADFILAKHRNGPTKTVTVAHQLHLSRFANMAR
Kind of assay: DnaB intein splicing inhibitors, dose response, biochemical, cell-free fluorescence (AID 449749). Type of assay: functional.

For a further assay, the target named is T3, Protein RecA (Mycobacterium tuberculosis, UniProt P9WHJ3).
T3 sequence (P9WHJ3 whole entry): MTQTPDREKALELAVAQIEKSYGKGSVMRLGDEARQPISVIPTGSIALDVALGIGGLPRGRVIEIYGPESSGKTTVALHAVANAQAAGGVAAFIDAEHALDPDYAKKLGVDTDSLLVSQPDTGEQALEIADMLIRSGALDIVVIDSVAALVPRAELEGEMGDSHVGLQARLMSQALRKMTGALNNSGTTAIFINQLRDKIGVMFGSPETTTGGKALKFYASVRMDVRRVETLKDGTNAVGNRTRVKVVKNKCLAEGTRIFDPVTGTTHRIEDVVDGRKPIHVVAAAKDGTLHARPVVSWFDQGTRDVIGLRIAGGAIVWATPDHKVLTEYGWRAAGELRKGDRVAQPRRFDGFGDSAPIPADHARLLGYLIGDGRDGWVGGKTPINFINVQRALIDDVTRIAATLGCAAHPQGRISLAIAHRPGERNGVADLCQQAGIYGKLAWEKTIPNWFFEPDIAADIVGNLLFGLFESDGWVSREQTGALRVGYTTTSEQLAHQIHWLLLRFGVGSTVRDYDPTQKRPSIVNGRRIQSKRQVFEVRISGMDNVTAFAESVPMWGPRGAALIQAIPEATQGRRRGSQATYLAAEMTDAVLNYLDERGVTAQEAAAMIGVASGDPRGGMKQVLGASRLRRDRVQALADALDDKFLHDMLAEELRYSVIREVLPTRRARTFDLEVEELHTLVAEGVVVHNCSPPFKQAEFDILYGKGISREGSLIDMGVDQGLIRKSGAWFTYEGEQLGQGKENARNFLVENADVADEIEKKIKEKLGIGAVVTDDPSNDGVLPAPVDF
Kind of assay: Fluorescence Cell-Free Homogeneous Dose Retest to Identify Inhibitors of RecA-Intein Splicing Activity. [Related pubchem assays (depositor defined):AID2097, AID2223, AID489010, AID492950]. Format: functional.

The nature of assay [14]: HGIII-sPLA2 enzyme inhibition potency – biochemical, QFRET, IC50, dose response (AID 743457).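 Also: green fluorescence rise as the enzyme cleaves BODIPY PC-A2 in liposomes.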
Assay [15] deals with T4, RNA-binding protein pos-1 (Caenorhabditis elegans, UniProt G5EF15).
T4 sequence (G5EF15 whole entry): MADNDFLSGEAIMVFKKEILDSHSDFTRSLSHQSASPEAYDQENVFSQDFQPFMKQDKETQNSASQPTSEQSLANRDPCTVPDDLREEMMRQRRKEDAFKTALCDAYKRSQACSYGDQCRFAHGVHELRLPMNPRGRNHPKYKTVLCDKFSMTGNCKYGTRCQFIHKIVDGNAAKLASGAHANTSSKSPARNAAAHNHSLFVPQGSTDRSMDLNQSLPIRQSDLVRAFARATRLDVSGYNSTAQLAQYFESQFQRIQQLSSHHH
Kind of assay: disruptors of C. elegans POS-1 RNA interaction – biochemical, fluorescence polarization, dose response (AID 1964).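 Also: purified POS-1 fused to maltose binding protein made in E. coli; potency of compounds blocking POS-1 binding to fluorescent RNA.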 A general note: Fluorescence polarisation rises when a labelled molecule tumbles more slowly, as on binding a larger partner.

The target of assay [16] is T5, Zinc finger protein mex-5 (Caenorhabditis elegans, UniProt Q9XUB2).
T5 sequence (Q9XUB2 whole entry): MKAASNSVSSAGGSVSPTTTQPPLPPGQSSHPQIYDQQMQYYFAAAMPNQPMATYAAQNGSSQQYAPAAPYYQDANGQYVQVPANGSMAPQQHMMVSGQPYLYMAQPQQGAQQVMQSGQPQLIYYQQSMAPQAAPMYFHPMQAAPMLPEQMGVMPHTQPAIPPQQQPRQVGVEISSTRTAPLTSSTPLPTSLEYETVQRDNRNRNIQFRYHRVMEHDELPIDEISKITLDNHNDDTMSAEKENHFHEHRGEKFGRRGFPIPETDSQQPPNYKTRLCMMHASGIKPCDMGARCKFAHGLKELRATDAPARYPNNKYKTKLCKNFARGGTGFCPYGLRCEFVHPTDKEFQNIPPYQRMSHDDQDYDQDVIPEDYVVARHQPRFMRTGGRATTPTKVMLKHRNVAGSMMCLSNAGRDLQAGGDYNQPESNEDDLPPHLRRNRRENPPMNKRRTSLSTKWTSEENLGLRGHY
Briefly: potency of MEX-5 RNA-binding blockers – biochemical, C. elegans, fluorescence polarization, dose response (AID 1960).

Assay [17] in a line: NIH-3T3 fibroblast cytotoxicity, dose response, cytotoxicity control, cell-based, fluorescence, Alamar Blue, secondary assay (AID 2327).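 Also: NIH-3T3 mouse fibroblasts cultured with fluconazole at 8 µg/mL.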 Type of assay: functional.

Sequence of Luciferin 4-monooxygenase (P08659 whole entry): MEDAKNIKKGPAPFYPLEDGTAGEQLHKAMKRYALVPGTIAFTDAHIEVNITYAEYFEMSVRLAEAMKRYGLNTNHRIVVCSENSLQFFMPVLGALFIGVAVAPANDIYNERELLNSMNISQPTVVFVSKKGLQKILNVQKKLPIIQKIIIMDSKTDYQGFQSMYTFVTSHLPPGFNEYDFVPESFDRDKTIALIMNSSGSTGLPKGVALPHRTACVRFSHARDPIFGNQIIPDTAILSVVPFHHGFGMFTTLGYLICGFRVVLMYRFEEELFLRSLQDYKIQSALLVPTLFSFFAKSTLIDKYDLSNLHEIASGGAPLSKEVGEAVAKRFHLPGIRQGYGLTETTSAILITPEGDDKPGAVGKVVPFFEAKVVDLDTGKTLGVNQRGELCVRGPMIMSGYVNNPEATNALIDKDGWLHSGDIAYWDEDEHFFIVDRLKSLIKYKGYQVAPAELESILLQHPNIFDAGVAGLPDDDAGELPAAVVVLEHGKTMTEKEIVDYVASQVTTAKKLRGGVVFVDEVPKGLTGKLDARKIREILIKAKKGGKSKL
Sequence of Albumin (P02769 whole entry): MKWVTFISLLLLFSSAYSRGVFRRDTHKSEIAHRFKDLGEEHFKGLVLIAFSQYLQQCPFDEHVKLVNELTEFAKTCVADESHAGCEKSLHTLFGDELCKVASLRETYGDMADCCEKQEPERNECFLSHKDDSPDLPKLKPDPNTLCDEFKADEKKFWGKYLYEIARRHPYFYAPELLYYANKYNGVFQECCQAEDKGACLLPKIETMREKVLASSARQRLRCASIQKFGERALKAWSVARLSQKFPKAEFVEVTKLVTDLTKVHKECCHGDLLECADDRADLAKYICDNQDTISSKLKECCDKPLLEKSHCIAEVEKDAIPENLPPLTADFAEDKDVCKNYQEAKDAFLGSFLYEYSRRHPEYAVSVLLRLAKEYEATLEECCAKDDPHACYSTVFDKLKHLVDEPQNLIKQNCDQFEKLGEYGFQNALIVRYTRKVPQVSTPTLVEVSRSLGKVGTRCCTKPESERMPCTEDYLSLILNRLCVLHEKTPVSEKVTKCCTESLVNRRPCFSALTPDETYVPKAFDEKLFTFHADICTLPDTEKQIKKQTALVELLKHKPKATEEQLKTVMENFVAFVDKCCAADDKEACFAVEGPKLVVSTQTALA

Usually AC50 stands for the concentration at which the activity in the assay is half-maximal. By IC50 is commonly meant the point on the concentration scale where inhibition reaches its midpoint. For orientation: EC50 means the concentration needed to bring the measured effect to its halfway point. For `CCOc1ccc2nc(NC(=O)c3ccco3)sc2c1`, the AC50 in [1] is 20.6 µM (active); in assay [2], 8.15 µM (active); in assay [3], 7.74 µM (active); in assay [4], 35.4 µM (active); in assay [6], 32.6 µM (active). The IC50 at Protein skinhead-1 was > 100 µM (inactive). Moreover, the EC50 is 0.383 µM (active) in assay [5] and 3.13 µM (active) in assay [7].

`O=C(Nc1ccc(-c2nc3ccccc3[nH]2)cc1)C1CCCO1` (configuration not stated): the AC50 in [1] is 21 µM (active); in assay [2], 6.14 µM (active); in [3] it was 6.98 µM (active); in assay [4], 14.1 µM (active); in assay [6], 24.7 µM (active). The concentration giving a half-maximal response (EC50) with BJ [8] was 16.8 µM (inconclusive); in the assay on BJ [9], 8.39 µM (inconclusive); in the assay with BJ [10] it was 22.9 µM (active); in assay [5] it was 1.02 µM (active); in assay [11], 9.19 µM (inconclusive); in assay [7], 1.69 µM (active).

In the case of `O=C(NNC(=O)c1ccc2ccccc2c1O)c1ccccc1Cl`, the values for the IC50 (on Albumin; in assay [14]) were > 94.1 µM (inactive) and > 122 µM (inactive), respectively. Besides, the EC50 was > 38 µM (not active) in assay [12]; > 380 µM (inactive) on Protein RecA; 15.4 µM (inconclusive) in [15]; 2.31 µM (inconclusive) in assay [16]; > 160 µM (inactive) in assay [17]. The half-maximal activity concentration (AC50) in assay [13] was 30 µM (active).
